We go through two molecules from patent US20180153870A1, “BIPERIDEN FOR TREATING CANCER” (Universitätsklinikum Hamburg-Eppendorf, priority 2015, published 2018).

The target in experiment [1] is T1, MALT1 (Homo sapiens, UniProt Q9UDY8).
T1 construct: endogenous in cells; host or cells: Panc-1, Panc-2, HPDE, Jurkat (PMA-stimulated and non-stimulated)
T1 sequence (Q9UDY8 1-824): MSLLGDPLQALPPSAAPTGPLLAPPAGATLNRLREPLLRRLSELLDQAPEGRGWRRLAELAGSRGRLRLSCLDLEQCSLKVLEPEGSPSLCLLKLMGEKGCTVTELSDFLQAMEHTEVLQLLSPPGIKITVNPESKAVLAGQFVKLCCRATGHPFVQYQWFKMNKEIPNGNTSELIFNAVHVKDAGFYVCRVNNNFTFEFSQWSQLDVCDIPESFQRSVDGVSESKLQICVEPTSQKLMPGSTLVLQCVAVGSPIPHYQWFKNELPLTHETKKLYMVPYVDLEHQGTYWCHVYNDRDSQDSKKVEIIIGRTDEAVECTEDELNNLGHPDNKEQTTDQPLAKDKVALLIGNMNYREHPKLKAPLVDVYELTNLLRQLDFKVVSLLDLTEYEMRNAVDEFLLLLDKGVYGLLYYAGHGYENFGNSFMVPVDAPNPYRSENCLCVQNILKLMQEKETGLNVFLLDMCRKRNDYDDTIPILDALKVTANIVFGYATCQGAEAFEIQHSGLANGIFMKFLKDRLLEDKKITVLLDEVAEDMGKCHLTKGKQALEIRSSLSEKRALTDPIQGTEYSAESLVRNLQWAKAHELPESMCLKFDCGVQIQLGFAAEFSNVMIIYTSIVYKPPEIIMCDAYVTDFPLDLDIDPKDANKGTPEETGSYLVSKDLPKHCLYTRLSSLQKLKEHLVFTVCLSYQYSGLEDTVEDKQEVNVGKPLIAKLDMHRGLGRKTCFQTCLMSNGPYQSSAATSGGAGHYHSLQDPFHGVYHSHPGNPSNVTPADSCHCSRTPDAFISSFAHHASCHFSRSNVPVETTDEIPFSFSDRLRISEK
Nature of the experiment: MALT1 activity in treated cells (immunoprecipitation, AC-LRSR-AMC cleavage). In kind it is cell-based. As for the experimental part:
The MALT1 activity was measured in the pancreatic cancer cells Panc-1, Panc-2 and in the reference line HPDE as well as in the PMA-stimulated and non-stimulated Jurkat cells. In order to examine whether mepazine, biperiden or a combination of both active ingredients influence the MALT1 activity and pancreatic cancer cells, an assay was performed as described in Nagel et al.. For this purpose, the pancreatic cancer cell lines and the reference cell lines were treated with biperiden (29.6 μg/ml), mepazine (25 μM), a combination of both active ingredients (15 μM mepazine+3.71 μg/ml biperiden) or only with DMSO. The cells were subsequently lysed and precipitated with mouse anti-MALT1 antibody (SC-76677, Santa Cruz, Calif., USA) as previously described by Gungor et al.. As described in the protocol, the fluorogenic substrate AC-LRSR-AMC, which was derived from the C-terminal BCL 10 cleavage site, was used as a substrate for MALT1. The cleavage activity of MALT1 was subsequently determined as relative fluorescence units by a microtiter plate reader (FLUOstar, Omega, BMG Labtech).
The results were determined after 24 hours of incubation with mepazine, biperiden, or a combination of both active ingredients. It was shown that pancreatic cancer cell lines as well as non-malignant, immortalized HPDE cell lines had constitutive MALT1 activity, although to a different extent. As a reference, a non-stimulated Jurkat cell line and a Jurkat cell line that was activated with PMA were examined.

Experiment [2] deals with esophageal carcinoma cell lines OE19, OE33 und KYSE 140. Nature of the experiment: MTT proliferation assay, esophageal carcinoma cell lines. The format is cell-based, human. The settings on record: OE19, OE33, KYSE 140; concentrations as in Example 1. As for the experimental part: The proliferation rates of the cell lines were determined after stimulation with (i) biperiden, (ii) mepazine, and (iii) stimulation with both active ingredients. For this purpose, cells were seeded in plates with 96 wells at 5000 cells per well and incubated overnight at 37° C. and 5% CO2. Next morning, the blanket values were measured at 490 nm in an ELISA reader (FLUOstar Omega, BMG LABTECH) after the addition of 100 μL medium and 20 μL MTT substrate (CellTiter 96 AQueous One Solution Cell Proliferation Assay, Promega). Biperiden was added in increasing concentrations (3.71 μg/ml, 11.1 μg/ml und 29.6 μg/ml) in the form of solutions of biperiden hydrochloride (B5311 SIGMA-Aldrich, USA) and DMSO. Mepazine was added in increasing concentrations (15 μM and 25 μM) in the form of solutions of mepazine hydrochloride (MALT1 Inhibitor II, Calbiochem Merck, Millipore Billerica, USA). Combinations of both mepazine and biperiden were added in the following concentrations: 15 μM mepazine+3.71 μg/ml biperiden; 25 μM mepazine+3.71 μg/ml biperiden. The ex-tinction was measured every 24 hours during a period of 72 hours. […]

For `OC(CCN1CCCCC1)(c1ccccc1)C1CC2C=CC1C2` (centres unmarked) [biperiden], the MALT1 activity result in experiment [1] (HPDE, 29.7 μg/ml biperiden, 10, 30 and 60 minutes after incubation with the MALT1 substrate, significantly (p=0.002; p=0.005; p=0.012)) is given as “reduced the MALT1 activity”; in experiment [1] (Panc-1, 29.7 μg/ml biperiden) it was “visibly reduced the MALT1 activity; however, this effect was not statistically significant”; in experiment [1] (Panc-2, 29.7 μM biperiden, immediately and 10 minutes after addition of the MALT1 substrate, statistically significant (p=0.011; p=0.031)) it was “the MALT1 activity was reduced”. Also, the “proliferation of esophageal carcinoma cell lines” value in experiment [2] is “inhibited proliferation of esophageal carcinoma cell lines significantly”.

Regarding `CN1CCCC(CN2c3ccccc3Sc3ccccc32)C1` (centres unmarked) [mepazine], the MALT1 activity entry is reported as “did not influence the MALT1 activity” in experiment [1] (HPDE, 25 μM mepazine, 24 hours of incubation); “the MALT1 activity was reduced” in experiment [1] (Panc-1, 25 μM mepazine, immediately after addition of the MALT1 substrate and 10, 30, 60 and 90 minutes thereafter, statistically significant); “reduced the MALT1 activity, whereas this reduction however was not statistically significant” in experiment [1] (Panc-2, 25 μM mepazine). Further, the “proliferation of esophageal carcinoma cell lines” value in experiment [2] was “inhibited proliferation of esophageal carcinoma cell lines significantly”.
